Assay results published in ChEMBL document CHEMBL1201862, “PubChem BioAssay data set” (2004).
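Five concentrations, 48 hours, 96-well plates. GI50 = concentration required for 50% inhibition of growth.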 Active and inactive are the calls of the source. No stated cut-off is given here; in the data, active = GI50 up to about 1.1 µM and inactive = higher.

Experiments:
Assay in all cases: NCI tumour cell line growth inhibition, 48 h
[1] = system: 786-0
[2] = system: A498
[3] = system: A549
[4] = system: ACHN
[5] = system: BT-549
[6] = system: CAKI-1
[7] = system: CCRF-CEM
[8] = system: COLO 205
[9] = system: DU-145
[10] = system: EKVX
[11] = system: HCC 2998
[12] = system: HCT-116
[13] = system: HCT-15
[14] = system: HL-60
[15] = system: HOP-62
[16] = system: HOP-92
[17] = system: HT-29
[18] = system: IGROV-1
[19] = system: K562
[20] = system: KM12
[21] = system: LOX IMVI
[22] = system: M14
[23] = system: MCF7
[24] = system: MDA-MB-231
[25] = system: MDA-MB-435
[26] = system: MDA-N
[27] = system: MOLT-4
[28] = system: NCI-H226
[29] = system: NCI-H23
[30] = system: NCI-H522
[31] = system: NCI/ADR-RES
[32] = system: OVCAR-3
[33] = system: OVCAR-4
[34] = system: OVCAR-5
[35] = system: OVCAR-8
[36] = system: PC-3
[37] = system: RPMI-8226
[38] = system: SF-268
[39] = system: SF-295
[40] = system: SF-539
[41] = system: SK-MEL-28
[42] = system: SK-MEL-2
[43] = system: SK-MEL-5
[44] = system: SK-OV-3
[45] = system: SN12C
[46] = system: SNB-19
[47] = system: SR
[48] = system: SW-620
[49] = system: T47D
[50] = system: TK-10
[51] = system: U-251
[52] = system: UACC-257
[53] = system: UACC-62
[54] = system: UO-31
[55] = system: NCI-H460
[56] = system: RXF 393
[57] = system: SNB-75
[58] = system: Malme-3M

COc1ncnc2c1cnn2Cc1cn(COCC(O)CO)nn1 (centres undefined)
GI50 [1]: > 100 µM (inactive)
GI50 [2]: > 100 µM (inactive)
GI50 [3]: > 100 µM (inactive)
GI50 [4]: > 100 µM (inactive)
GI50 [5]: > 100 µM (inactive)
GI50 [6]: > 100 µM (inactive)
GI50 [7]: > 100 µM (inactive)
GI50 [8]: > 100 µM (inactive)
GI50 [9]: > 100 µM (inactive)
GI50 [10]: > 100 µM (inactive)
GI50 [11]: > 100 µM (inactive)
GI50 [12]: > 100 µM (inactive)
GI50 [13]: > 100 µM
GI50 [14]: > 100 µM (inactive)
GI50 [15]: > 100 µM (inactive)
GI50 [16]: 22.8 µM (inactive)
GI50 [17]: > 100 µM (inactive)
GI50 [18]: > 100 µM (inactive)
GI50 [19]: > 100 µM (inactive)
GI50 [20]: > 100 µM (inactive)
GI50 [21]: > 100 µM (inactive)
GI50 [22]: > 100 µM (inactive)
GI50 [23]: > 100 µM (inactive)
GI50 [24]: > 100 µM (inactive)
GI50 [25]: > 100 µM (inactive)
GI50 [26]: > 100 µM (inactive)
GI50 [27]: > 100 µM (inactive)
GI50 [28]: > 100 µM (inactive)
GI50 [29]: > 100 µM (inactive)
GI50 [30]: 10.8 µM (inactive)
GI50 [31]: > 100 µM (inactive)
GI50 [32]: > 100 µM (inactive)
GI50 [33]: > 100 µM (inactive)
GI50 [34]: > 100 µM (inactive)
GI50 [35]: > 100 µM (inactive)
GI50 [36]: > 100 µM (inactive)
GI50 [37]: > 100 µM (inactive)
GI50 [38]: 16.3 µM (inactive)
GI50 [39]: > 100 µM (inactive)
GI50 [40]: > 100 µM (inactive)
GI50 [41]: > 100 µM (inactive)
GI50 [42]: > 100 µM (inactive)
GI50 [43]: > 100 µM (inactive)
GI50 [44]: > 100 µM (inactive)
GI50 [45]: > 100 µM (inactive)
GI50 [46]: > 100 µM (inactive)
GI50 [47]: > 100 µM (inactive)
GI50 [48]: > 100 µM (inactive)
GI50 [49]: > 100 µM (inactive)
GI50 [50]: > 100 µM (inactive)
GI50 [51]: > 100 µM (inactive)
GI50 [52]: > 100 µM (inactive)
GI50 [53]: > 100 µM (inactive)
GI50 [54]: > 100 µM (inactive)

COC(=O)C1=C(O)CCCC(C2CCCCC(=O)C2C(=O)OC)=C1 (centres undefined)
GI50 [1]: 37.8 µM (inactive)
GI50 [2]: 18.4 µM (inactive)
GI50 [3]: 44.3 µM (inactive)
GI50 [4]: 37.2 µM (inactive)
GI50 [5]: 78.9 µM (inactive)
GI50 [6]: 31.1 µM (inactive)
GI50 [7]: 20.8 µM (inactive)
GI50 [8]: 83.4 µM (inactive)
GI50 [9]: 29.9 µM (inactive)
GI50 [10]: 67.3 µM (inactive)
GI50 [11]: 33.5 µM (inactive)
GI50 [12]: 36.1 µM (inactive)
GI50 [13]: 87.5 µM
GI50 [16]: 28.5 µM (inactive)
GI50 [17]: > 100 µM (inactive)
GI50 [18]: 36.8 µM (inactive)
GI50 [19]: 64.3 µM (inactive)
GI50 [20]: 94.6 µM (inactive)
GI50 [21]: 25.6 µM (inactive)
GI50 [22]: > 100 µM (inactive)
GI50 [23]: 22.6 µM (inactive)
GI50 [24]: 46.5 µM (inactive)
GI50 [25]: > 100 µM (inactive)
GI50 [26]: > 100 µM (inactive)
GI50 [27]: 31.3 µM (inactive)
GI50 [28]: 27.9 µM (inactive)
GI50 [29]: 70.3 µM (inactive)
GI50 [55]: 13.9 µM (inactive)
GI50 [31]: > 100 µM (inactive)
GI50 [32]: > 100 µM (inactive)
GI50 [33]: > 100 µM (inactive)
GI50 [34]: > 100 µM (inactive)
GI50 [35]: 45.5 µM (inactive)
GI50 [36]: 63.4 µM (inactive)
GI50 [37]: 56.1 µM (inactive)
GI50 [56]: 90.2 µM (inactive)
GI50 [39]: 48 µM (inactive)
GI50 [40]: 24.5 µM (inactive)
GI50 [41]: > 100 µM (inactive)
GI50 [42]: > 100 µM (inactive)
GI50 [43]: 62.4 µM (inactive)
GI50 [44]: 76.7 µM (inactive)
GI50 [45]: 38.2 µM (inactive)
GI50 [46]: 42.1 µM (inactive)
GI50 [57]: 28.7 µM (inactive)
GI50 [47]: 24.7 µM (inactive)
GI50 [48]: 81.8 µM (inactive)
GI50 [49]: 39.4 µM (inactive)
GI50 [50]: > 100 µM (inactive)
GI50 [51]: 29 µM (inactive)
GI50 [52]: 52.1 µM (inactive)
GI50 [53]: 19.4 µM (inactive)
GI50 [54]: > 100 µM (inactive)

COc1ccc2nc3c4c(nccc4c2c1)-c1ncccc1C3=O
GI50 [1]: 0.0246 µM (active)
GI50 [2]: 0.0916 µM (active)
GI50 [3]: 0.113 µM (active)
GI50 [4]: 0.0116 µM (active)
GI50 [5]: 0.109 µM (active)
GI50 [6]: 0.109 µM (active)
GI50 [7]: 0.818 µM (active)
GI50 [8]: 0.604 µM (active)
GI50 [9]: 0.00927 µM (active)
GI50 [10]: 0.132 µM (active)
GI50 [11]: 0.209 µM (active)
GI50 [12]: 0.0124 µM (active)
GI50 [13]: 0.005 µM
GI50 [14]: 0.0217 µM (active)
GI50 [15]: 0.0193 µM (active)
GI50 [16]: 0.092 µM (active)
GI50 [17]: 0.499 µM (active)
GI50 [18]: 0.0294 µM (active)
GI50 [19]: 0.016 µM (active)
GI50 [20]: 0.0748 µM (active)
GI50 [21]: 0.00982 µM (active)
GI50 [22]: 0.0118 µM (active)
GI50 [23]: 0.021 µM (active)
GI50 [24]: 0.494 µM (active)
GI50 [25]: 0.0427 µM (active)
GI50 [26]: 0.0631 µM (active)
GI50 [27]: 0.847 µM (active)
GI50 [58]: 0.0791 µM (active)
GI50 [28]: 0.0622 µM (active)
GI50 [29]: 0.0887 µM (active)
GI50 [55]: 0.0261 µM (active)
GI50 [31]: 0.201 µM (active)
GI50 [32]: 0.005 µM (active)
GI50 [33]: 0.439 µM (active)
GI50 [34]: 0.971 µM (active)
GI50 [35]: 0.034 µM (active)
GI50 [36]: 0.0317 µM (active)
GI50 [37]: 0.0652 µM (active)
GI50 [56]: 0.119 µM (active)
GI50 [38]: 0.0826 µM (active)
GI50 [39]: 0.08 µM (active)
GI50 [40]: 0.0769 µM (active)
GI50 [41]: 0.109 µM (active)
GI50 [42]: 0.376 µM (active)
GI50 [43]: 0.0282 µM (active)
GI50 [44]: 0.0586 µM (active)
GI50 [45]: 0.0508 µM (active)
GI50 [46]: 0.0656 µM (active)
GI50 [57]: 0.0787 µM (active)
GI50 [47]: 0.00542 µM (active)
GI50 [48]: 0.0121 µM (active)
GI50 [49]: 0.703 µM (active)
GI50 [50]: 0.18 µM (active)
GI50 [51]: 0.0319 µM (active)
GI50 [52]: 0.0834 µM (active)
GI50 [53]: 0.048 µM (active)
GI50 [54]: 0.135 µM (active)
